Measurements from US20090186088A1, “INHALABLE DRUG” (NanoMaterials Technology Pte Ltd, priority 2005, published 2009).

Legend:
[1] = British Pharmacopoeia; cited from earlier work
[2] = Dispersion experiments in multi-stage liquid impinger (MSLI), fine particle fraction; format: physicochemical; details: beaker-synthesised powder, 60 L/min, 4 seconds
From the text: The measurement of particle sizes in vitro allows a simplistic estimation of the aerodynamic particle size distribution. This process utilizes cascade or impactor devices such as the multi-stage liquid impinger (MSLI) (FIG. 7) to provide a breakdown of the particle size distribution through separation and collection of powder of different Da.
The MSLI consists of 5 stages which have been calibrated at 60 L/min to collect powder of a certain Da, known as the cut-off Da:
At flow rates of 60-100 L/min, the particles which have a Da of less than 5 μm are expected to be able to surpass oropharangeal deposition and the filter of the MSLI from equation 3. From the results of the MSLI, the FPF (fine particle fraction) can be calculated, and expressed as two different forms: […]
The recovery was also calculated for each dispersion which represents the mass of powder which was accounted for compared with the mass which was loaded into the capsules (Equation 6).
The equipment used to perform the dispersion experiments was the MSLI, which has been described earlier. […] The supernatant was then collected. • Step 11: All rinsings were collected into separately labeled glass vials and analyzed by UV immediately to minimize the effect of evaporation, which would produce an overestimation of the concentration collected.

[3] = format: physicochemical
From the text: The aim of this experiment was to achieve a suspension containing fine Salbutamol sulfate precipitate. […] Alcohol (ethanol) therefore was considered to be the best choice, considering the safety of the possible solvents. The solubility of a solid is a function of the solid particle size according to Equation 1
where R is the gas constant, T the absolute temperature, S and Sr the solubility of large solid particles and of particles having small radius r respectively, and M, σ, and d are the molecular weight, surface tension, and density of the solid respectively. It will be appreciated from Eq. 1 that the solubility of a solid will increase as the particle size decreases. […] Consequently, when one considers the yield of the process, alcohol no longer appears suitable. […] Further, IPA is a commonly used organic solvent.

Compound	solubility in alcohol [1]	solubility in ether [1]	solubility in water [1]	reduction in FPF(emitted), Rotahaler vs Aeroliser [2] [%]	reduction in FPF(total), Rotahaler vs Aeroliser [2] [%]	solubility in methylene chloride [1]	solubility in IPA [3]
CC(C)(C)NCC(O)c1ccc(O)c(CO)c1 (stereo not shown) [Salbutamol base]	soluble	slightly soluble	sparingly soluble	–	–	–	–
Salbutamol sulfate	slightly soluble	slightly soluble	freely soluble	~30	~20	very slightly soluble	somewhat lower than in alcohol
